Reference: patent publication US7517874B2 (priority 2007, dated 2009)
Where two headings read alike, the source gives them in different places.

Experiments:
rat CB2 receptor (rCB2) = target: T1, rat CB2 receptor (rCB2) (Rattus norvegicus, UniProt Q9QZN9); experiment: cell-based; format: cell-based; settings: for +/− RCB2: agonist or inverse agonist at rCB2
T1 sequence (Q9QZN9 1-360): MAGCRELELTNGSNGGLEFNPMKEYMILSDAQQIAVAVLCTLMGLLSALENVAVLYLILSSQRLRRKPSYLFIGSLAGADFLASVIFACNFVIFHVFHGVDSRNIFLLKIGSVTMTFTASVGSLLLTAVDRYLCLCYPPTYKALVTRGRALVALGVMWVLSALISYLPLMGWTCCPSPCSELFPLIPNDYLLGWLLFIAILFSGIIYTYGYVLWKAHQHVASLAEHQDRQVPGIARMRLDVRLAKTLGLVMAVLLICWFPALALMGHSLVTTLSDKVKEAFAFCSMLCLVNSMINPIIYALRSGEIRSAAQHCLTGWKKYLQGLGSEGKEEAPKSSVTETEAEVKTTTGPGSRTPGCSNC
Procedure, shortened: (§1)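 Readout: LANCE TR-FRET cAMP, back-calculated from a concurrent standard curve and scaled between forskolin-only and forskolin + 1 μM CP55,940 wells. EC50 and intrinsic activity came from four-parameter fits.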

[1] = target: human CB1 receptor (hCB1) (Homo sapiens, UniProt P21554); experiment: cell-based; format: cell-based
human CB1 receptor (hCB1), sequence (P21554 whole entry): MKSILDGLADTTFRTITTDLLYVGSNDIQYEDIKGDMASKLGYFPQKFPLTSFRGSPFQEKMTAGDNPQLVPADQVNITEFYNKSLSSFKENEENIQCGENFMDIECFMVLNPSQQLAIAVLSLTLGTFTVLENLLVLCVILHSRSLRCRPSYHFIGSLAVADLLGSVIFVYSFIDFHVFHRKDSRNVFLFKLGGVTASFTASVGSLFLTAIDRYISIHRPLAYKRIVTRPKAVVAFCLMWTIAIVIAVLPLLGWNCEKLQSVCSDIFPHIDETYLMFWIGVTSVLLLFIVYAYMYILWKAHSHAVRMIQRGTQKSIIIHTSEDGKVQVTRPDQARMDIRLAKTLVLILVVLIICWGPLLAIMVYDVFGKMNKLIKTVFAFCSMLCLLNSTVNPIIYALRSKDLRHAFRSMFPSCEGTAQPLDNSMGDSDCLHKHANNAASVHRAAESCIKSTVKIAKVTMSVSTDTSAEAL
Procedure, shortened: as §1

SMILES | +/− RCB2 (rat CB2 receptor (rCB2)) | EC50 [1] [nM] | EC50 (rat CB2 receptor (rCB2); groups >100 nM-10 μM and >10 μM, cAMP, CHO-K1 rCB2, read-out: EC50 RCB2) [nM] | EC50 ([1]; groups >100 nM-10 μM and >10 μM, cAMP, CHO-K1 hCB1, read-out: EC50 HCB1) [nM] | EC50 (rat CB2 receptor (rCB2)) [nM]
CCN1CCn2c(-c3ccccc3)nc(C(=O)NC3C4(C)CCC(C4)C3(C)C)c2C1 (stereo not shown) [Compound 144, 7-ethyl-3-phenyl-N-(1,3,3-trimethylbicyclo[2.2.1]heptan-2-yl)-5,6,7,8-tetrahydroimidazo[1,5-a]pyrazine-1-carboxamide] | − | > 10000 |  |  | 
CNC(=O)[C@@H](NC(=O)c1nc(-c2ccc(N3CCOCC3)cc2)n2c1CN(C)CCC2)C(C)(C)C [Compound 378, (S)-N-(3,3-dimethyl-1-(methylamino)-1-oxobutan-2-yl)-8-methyl-3-(4-morpholinophenyl)-6,7,8,9-tetrahydro-5H-imidazo[1,5-a][1,4]diazepine-1-carboxamide] | − | > 10000 |  |  | 
CNC(=O)[C@@H](NC(=O)c1nc(C2CCCCC2)n2c1CN(C)CCC2)C(C)(C)C [Compound 487, (S)-3-cyclohexyl-N-(3,3-dimethyl-1-(methylamino)-1-oxobutan-2-yl)-8-methyl-6,7,8,9-tetrahydro-5H-imidazo[1,5-a][1,4]diazepine-1-carboxamide] | + | > 10000 |  |  | 
CNC(=O)[C@@H](NC(=O)c1nc(-c2ccccc2OC)n2c1CN(C)CCC2)C(C)(C)C [Compound 325, (S)-N-(3,3-dimethyl-1-(methylamino)-1-oxobutan-2-yl)-3-(2-methoxyphenyl)-8-methyl-6,7,8,9-tetrahydro-5H-imidazo[1,5-a][1,4]diazepine-1-carboxamide] | + | > 10000 |  |  | 
CNC(=O)[C@@H](NC(=O)c1nc(-c2ccccc2)n2c1CN(C)CCC2)C(C)(C)O [Compound 607, (S)-N-(3-hydroxy-3-methyl-1-(methylamino)-1-oxobutan-2-yl)-8-methyl-3-phenyl-6,7,8,9-tetrahydro-5H-imidazo[1,5-a][1,4]diazepine-1-carboxamide] | + | > 10000 |  |  | 
CNC(=O)[C@H](C)NC(=O)c1nc(-c2ccccc2)n2c1CNCC2 [Compound 28, (S)-N-(1-(methylamino)-1-oxopropan-2-yl)-3-phenyl-5,6,7,8-tetrahydroimidazo[1,5-a]pyrazine-1-carboxamide] |  |  | > 10000 | > 10000 | 
CNC(=O)[C@H](CC(C)C)NC(=O)c1nc(-c2ccc(F)cc2)n2c1CN(C)CCC2 [Compound 530, (S)-3-(4-fluorophenyl)-8-methyl-N-(4-methyl-1-(methylamino)-1-oxopentan-2-yl)-6,7,8,9-tetrahydro-5H-imidazo[1,5-a][1,4]diazepine-1-carboxamide] | + | > 10000 |  |  | 
CNC(=O)[C@@H](NC(=O)c1nc(-c2cccc(C(=O)N3CCOCC3)c2)n2c1CN(C)CCC2)C(C)(C)C [Compound 386, (S)-N-(3,3-dimethyl-1-(methylamino)-1-oxobutan-2-yl)-8-methyl-3-(3-(morpholine-4-carbonyl)phenyl)-6,7,8,9-tetrahydro-5H-imidazo[1,5-a][1,4]diazepine-1-carboxamide] |  | > 10000 |  |  | > 10000
Cc1noc([C@@H](NC(=O)c2nc(-c3ccccc3)n3c2CN(C)CCC3)C(C)(C)C)n1 [Compound 521, (S)-N-(2,2-dimethyl-1-(3-methyl-1,2,4-oxadiazol-5-yl)propyl)-8-methyl-3-phenyl-6,7,8,9-tetrahydro-5H-imidazo[1,5-a][1,4]diazepine-1-carboxamide] | + | > 10000 |  |  | 
CNC(=O)[C@@H](NC(=O)c1nc(-c2cccc(F)c2)n2c1CN(C)CCC2)C(C)(C)C [Compound 345, (S)-N-(3,3-dimethyl-1-(methylamino)-1-oxobutan-2-yl)-3-(3-fluorophenyl)-8-methyl-6,7,8,9-tetrahydro-5H-imidazo[1,5-a][1,4]diazepine-1-carboxamide] | + | > 10000 |  |  | 
CC12CCC(C1)C(C)(C)C2NC(=O)c1nc(-c2ccccc2)n2c1CN(C(=O)C1CC1)CC2 (stereo not shown) [Compound 119, 7-(cyclopropanecarbonyl)-3-phenyl-N-(1,3,3-trimethyl-bicyclo [2.2.1]heptan-2-yl)-5,6,7,8-tetrahydroimidazo[1,5-a]pyrazine-1-carboxamide] | − | > 10000 |  |  | 
CNC(=O)[C@@H](NC(=O)c1nc(-c2cc(F)cc(F)c2)n2c1CN(C)CCC2)C(C)(C)C [Compound 331, (S)-3-(3,5-difluorophenyl)-N-(3,3-dimethyl-1-(methylamino)-1-oxobutan-2-yl)-8-methyl-6,7,8,9-tetrahydro-5H-imidazo[1,5-a][1,4]diazepine-1-carboxamide] | + | > 10000 |  |  | 
CNC(=O)[C@@H](NC(=O)c1nc(-c2cc(Cl)c(C)cc2F)n2c1CN(C)CCC2)C(C)(C)C [Compound 357, (S)-3-(5-chloro-2-fluoro-4-methylphenyl)-N-(3,3-dimethyl-1-(methylamino)-1-oxobutan-2-yl)-8-methyl-6,7,8,9-tetrahydro-5H-imidazo[1,5-a][1,4]diazepine-1-carboxamide] |  | > 10000 |  |  | > 10000
CNC(=O)[C@@H](NC(=O)c1nc(-c2cc(C(F)(F)F)ccc2F)n2c1CN(C)CC2)C(C)(C)C [Compound 245, (S)-N-(3,3-dimethyl-1-(methylamino)-1-oxobutan-2-yl)-3-(2-fluoro-5-(trifluoromethyl)phenyl)-7-methyl-5,6,7,8-tetrahydroimidazo[1,5-a]pyrazine-1-carboxamide] | − | > 10000 |  |  | 
CNC(=O)[C@@H](NC(=O)c1nc(-c2ccccc2)n2c1CN(C1CC1)CCC2)C(C)(C)C [Compound 199, (S)-8-cyclopropyl-N-(3,3-dimethyl-1-(methylamino)-1-oxobutan-2-yl)-3-phenyl-6,7,8,9-tetrahydro-5H-imidazo[1,5-a][1,4]diazepine-1-carboxamide] | + | > 10000 |  |  | 
CNC(=O)[C@@H](NC(=O)c1nc(-c2ccsc2)n2c1CN(Cc1cncnc1)CC2)C(C)(C)C [Compound 76, (S)-N-(3,3-dimethyl-1-(methylamino)-1-oxobutan-2-yl)-7-(pyrimidin-5-ylmethyl)-3-(thiophen-3-yl)-5,6,7,8-tetrahydroimidazo[1,5-a]pyrazine-1-carboxamide] | + | > 10000 |  |  | 
CC12CCC(C1)C(C)(C)C2NC(=O)c1nc(-c2ccccc2)n2c1CN(C(=O)C1CCOC1)CC2 (stereo not shown) [Compound 121, 3-phenyl-7-(tetrahydrofuran-3-carbonyl)-N-(1,3,3-trimethylbicyclo[2.2.1]heptan-2-yl)-5,6,7,8-tetrahydroimidazo[1,5-a]pyrazine-1-carboxamide] | − | > 10000 |  |  | 
CN1CCn2c(-c3ccccc3)nc(C(=O)NCCCO)c2C1 [Compound 229, N-(3-hydroxypropyl)-7-methyl-3-phenyl-5,6,7,8-tetrahydroimidazo[1,5-a]pyrazine-1-carboxamide] |  | > 10000 |  |  | > 10000
CNC(=O)[C@@H](NC(=O)c1nc(CC(C)C)n2c1CN(C)CCC2)C(C)(C)C [Compound 486, (S)-N-(3,3-dimethyl-1-(methylamino)-1-oxobutan-2-yl)-3-isobutyl-8-methyl-6,7,8,9-tetrahydro-5H-imidazo[1,5-a][1,4]diazepine-1-carboxamide] | + | > 10000 |  |  | 
CN1CCn2c(-c3ccccc3)nc(C(=O)NCC3CCOCC3)c2C1 [Compound 236, 7-methyl-3-phenyl-N-((tetrahydro-2H-pyran-4-yl)methyl)-5,6,7,8-tetrahydroimidazo[1,5-a]pyrazine-1-carboxamide] |  | > 10000 |  |  | > 10000
